Test results reported in patent US20090209576A1, “PHARMACEUTICAL COMPOSITION CONTAINING CLOPIDOGREL CAMPHORSULFONATE OR POLYMORPHIC FORMS THEREOF” (HANMI PHARM. CO., LTD., priority 2006, published 2009).
Where a name gives a salt, the structure may show the parent alone. Read-outs that look alike come from different tables or passages of the source.

Columns and labels:
[1] = for water content / hygroscopicity under accelerated condition: 60° C. and 75% relative humidity for a period of over 28 days; for Amount of acid addition salts of clopidogrel / Amount of hydrolyzed impurities / Amount of levorotatory isomers / Water content: 60±2° C., 75±5% relative humidity
Experimental: (§1) Condition A: For the Measurement of the Assay of Acid Addition Salt of Clopidogrel
(§2) Column: Kromasil C18, 5 μm (250 mm×4.6 mm)
(§3) Mobile phase: Na2HPO4—NaH2PO4 buffer solution:TBF:CH3CN=5:2:3 (v/v)
Condition B: For the Measurement of the Amount of Hydrolyzed Impurities of Acid Addition Salt of Clopidogrel
Column: Capcellpak C18 MG, 5 μm (250 mm×4.6 mm)
Mobile phase: KH2PO4 buffer solution/CH3CN (70/30):KH2PO4 buffer solution/CH3CN (30/70)=0:100→[…] (v/v, gradient elution)
Condition C: For the Measurement of the Optical Purity of Acid Addition Salt of Clopidogrel
Column: Chiralpak AD, 5 μm (250 mm×4.6 mm)
Mobile phase: n-hexane:isopropanol=90:10 (v/v)
The camphorsulfonate polymorphic form A1 obtained in Example 1, the camphorsulfonate polymorphic form B1 obtained in Example 2, the hydrogen sulfate obtained in Comparative Example 1 and the benzenesulfonate obtained in Comparative Example 2 were each subjected to a condition of 60±2° C. and 75±5% relative humidity for a period of 28 days to test their stabilities. The changes of the assay of the acid addition salts of clopidogrel, and the amounts of hydrolyzed impurities and levorotatory isomers thereof and the water content thereof were measured at 7, 14, 21 and 28 days relative to that of the initial day (0) using HPLC. The results are shown in Tables 6 to 9 and FIGS. 12 to 15, respectively.

[2] = physchem
Description: as §1, §2, §3
The camphorsulfonate polymorphic form A1 obtained in Example 1, the camphorsulfonate polymorphic form B1 obtained in Example 2, the hydrogen sulfate obtained in Comparative Example 1 and the benzenesulfonate obtained in Comparative Example 2 were each dissolved in unionized water until saturated. The amounts of clopidogrel in the resulting solutions were measured under HPLC condition A, and the results are shown in Table 5.

[3] = dissolved in unionized water until saturated, HPLC condition A

Row | Amount of acid addition salts of clopidogrel ([1]; 0 day) [%] | Amount of hydrolyzed impurities ([1]; 0 day) [%] | Amount of levorotatory isomers ([1]; 0 day) [%] | Water content ([1]; 0 day) [%] | Amount of acid addition salts of clopidogrel ([1]; 7 days) [%] | Amount of hydrolyzed impurities ([1]; 7 days) [%] | Amount of levorotatory isomers ([1]; 7 days) [%] | Water content ([1]; 7 days) [%] | Amount of acid addition salts of clopidogrel ([1]; 14 days) [%] | Amount of hydrolyzed impurities ([1]; 14 days) [%] | Amount of levorotatory isomers ([1]; 14 days) [%] | Water content ([1]; 14 days) [%] | Water content ([1]; 21 days) [%] | Amount of acid addition salts of clopidogrel ([1]; 28 days) [%] | Amount of hydrolyzed impurities ([1]; 28 days) [%] | Amount of levorotatory isomers ([1]; 28 days) [%] | Water content ([1]; 28 days) [%] | Water-solubility [2, 3] | Compound | water content / hygroscopicity under accelerated condition [1] | other results
1 | 99.6 | 0.01 | 0.01 | 0.1 | 99.2 | 0.01 | 0.01 | 0.1 | 99.9 | 0.02 | 0.02 | 0.1 | 0.1 | 99.3 | 0.03 | 0.03 | 0.1 | 3.98 mg/ml, as clopidogrel | COC(=O)[C@H](c1ccccc1Cl)N1CCc2sccc2C1 [Camphorsulfonate (polymorphic form B1), clopidogrel (+)-(1S)-camphor-10-sulfonate] | almost maintain their original water contents | Water-solubility ([2]; measured in a saturated aqueous solution): around 4.0 mg/ml
2 | 99.2 | 0.03 | 0.01 | 0.2 | 98.8 | 0.72 | 0.05 | 0.3 | 97.5 | 2.15 | 0.19 | 0.8 | 2.8 | 80.5 | 16.49 | 1.53 | 7.3 | 7.42 mg/ml, as clopidogrel | COC(=O)[C@H](c1ccccc1Cl)N1CCc2sccc2C1 [Hydrogen sulfate, Clopidogrel hydrogen sulfate, reference compound] | – | –
3 | 99.2 | 0.01 | 0.02 | 0.0 | 99.1 | 0.08 | 0.02 | 0.1 | 99.6 | 0.15 | 0.02 | 0.0 | 0.0 | 99.1 | 0.17 | 0.02 | 0.1 | 4.04 mg/ml, as clopidogrel | COC(=O)C(c1ccccc1Cl)N1CCc2sccc2C1 (stereo in doubt) [Camphorsulfonate (polymorphic form A1), clopidogrel (−)-(1R)-camphor-10-sulfonate] | almost maintain their original water contents | solubility ([2]; unionized water, water, thermodynamic from solid): ~4000 µg/mL

Row | Compound | Amount of acid addition salts of clopidogrel ([1]; 0 day) [%] | Amount of hydrolyzed impurities ([1]; 0 day) [%] | Amount of levorotatory isomers ([1]; 0 day) [%] | Water content ([1]; 0 day) [%] | Amount of acid addition salts of clopidogrel ([1]; 7 days) [%] | Amount of hydrolyzed impurities ([1]; 7 days) [%] | Amount of levorotatory isomers ([1]; 7 days) [%] | Water content ([1]; 7 days) [%] | Amount of acid addition salts of clopidogrel ([1]; 14 days) [%] | Amount of hydrolyzed impurities ([1]; 14 days) [%] | Amount of levorotatory isomers ([1]; 14 days) [%] | Water content ([1]; 14 days) [%] | Water content ([1]; 21 days) [%] | Amount of acid addition salts of clopidogrel ([1]; 28 days) [%] | Amount of hydrolyzed impurities ([1]; 28 days) [%] | Amount of levorotatory isomers ([1]; 28 days) [%] | Water content ([1]; 28 days) [%] | Water-solubility [2, 3] | water content / hygroscopicity under accelerated condition [1] | other results
4 | Clopidogrel benzenesulfonate [reference compound] | 99.3 | 0.01 | 0.01 | 0.1 | 93.9 | 2.79 | 0.81 | 6.4 | 80.5 | 8.56 | 2.49 | 7.3 | 9.2 | 61.7 | 25.33 | 4.79 | 9.4 | 4.74 mg/ml, as clopidogrel | – | –
